Results as given in patent US9409952B2, “Peptide-compound cyclization method” (Chugai Seiyaku Kabushiki Kaisha, priority 2011, dated 2016).
Starred links: 1 amine or outer side, 2 acyl side, 3 side chain; linkers in the order of their positions; H or OH if unused. Positions of bridges follow the written chain, without caps; N, C: chain ends. Non-standard residues stand in square brackets, D forms with d. Residues, ends and D or L forms follow the SMILES beside them. *: point of attachment. NMeF = CN[C@@H](Cc1ccccc1)C(=O)O; NMeβAla = CN(CCC(=O)[*:2])[*:1]; NMeL = CN[C@@H](CC(C)C)C(=O)O; NMeV = CN[C@H](C(=O)O)C(C)C; NMeA = CN[C@@H](C)C(=O)O; Piperidide = C1CCN(*)CC1; dNMeA = CN[C@H](C)C(=O)O; Sar = CNCC(=O)O; tBu = CC(C)(C)*

How the values were obtained:
[1] = PAMPA (parallel artificial membrane permeability assay); format: in vitro ADME; details: PAMPA; membrane permeation rate (Pe); 50 mM MOPSO buffer pH 6.5 with 5.0% glycocholic acid, 37° C., 18 hours; read-out: iPAMPA Pe
Outline: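 Artificial membrane was 10% (w/v) egg lecithin plus 0.5% (w/v) cholesterol in dodecane on a PVDF filter. A 10 mM DMSO stock was added at 0.5% (v/v) to donor buffer (50 mM MOPSO, pH 6.5, 5.0% glycocholic acid). After 18 h at 37 °C, LC/MS or LC/UV gave donor and acceptor levels for Pe.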

[2] = Metabolic stability in human hepatic microsome; format: in vitro ADME; details: microsomes, pH 7.4; human hepatic microsome, NADPH(+); read-out: CL NADPH(+)

Structure (SMILES) | Papp at 18 hours, 50 µM [1] | microsomal CLint at 1 uM [2]
CC(C)C[C@@H]1NC(=O)[C@H](CC(C)C)N(C)C(=O)CCN(C)C(=O)C[C@@H](C(=O)N(C)[C@@H](Cc2ccccc2)C(=O)N[C@@H](C)C(=O)N2CCCCC2)NC(=O)[C@H]([C@@H](C)O)NC(=O)[C@H](CC(C)C)N(C)C(=O)[C@H](Cc2ccccc2)NC(=O)[C@H](Cc2ccccc2)N(C)C(=O)[C@H](CC(C)C)N(C)C1=O [DP-461] ([NMeβAla][NMeL]L[NMeL][NMeF]F[NMeL]TD[NMeF]A-Piperidide; lactam N-9) | 33 ×10⁻⁶ cm/s | 78 µL/min/mg
CC(C)C[C@H]1C(=O)N(C)[C@@H](C)C(=O)N[C@@H]([C@@H](C)O)C(=O)N(C)[C@@H](C)C(=O)N[C@H](C(=O)N(C)[C@@H](Cc2ccccc2)C(=O)N[C@@H](C)C(=O)N2CCCCC2)CC(=O)N(C)[C@H](C)C(=O)N(C)[C@@H](Cc2ccccc2)C(=O)N(C)[C@@H](C)C(=O)N[C@@H](C(C)C)C(=O)N1C [DP-462] ([dNMeA][NMeF][NMeA]V[NMeL][NMeA]T[NMeA]D[NMeF]A-Piperidide; lactam N-9) | 9.5 ×10⁻⁶ cm/s | 17 µL/min/mg
CC(C)C[C@H]1C(=O)N(C)[C@@H](C)C(=O)N[C@H](C(=O)N(C)[C@@H](Cc2ccccc2)C(=O)N(C)[C@@H](Cc2ccccc2)C(=O)N[C@@H](C)C(=O)N2CCCCC2)CC(=O)N(C)[C@H](C)C(=O)N(C)[C@@H](Cc2ccccc2)C(=O)N(C)CC(=O)N[C@@H]([C@@H](C)O)C(=O)N[C@@H](C)C(=O)N(C)[C@@H](C)C(=O)N1C [DP-463] ([dNMeA][NMeF][Sar]TA[NMeA][NMeL][NMeA]D[NMeF][NMeF]A-Piperidide; lactam N-9) | 3.1 ×10⁻⁶ cm/s | 10 µL/min/mg
CC(C)C[C@H]1C(=O)N[C@@H]([C@@H](C)O)C(=O)N(C)[C@@H](C)C(=O)N[C@@H](C(C)C)C(=O)N(C)[C@@H](C)C(=O)N(C)[C@@H](C)C(=O)N[C@H](C(=O)N(C)[C@@H](Cc2ccccc2)C(=O)N(C)[C@@H](Cc2ccccc2)C(=O)N[C@@H](C)C(=O)N2CCCCC2)CC(=O)N(C)[C@@H](C)C(=O)N(C)[C@@H](Cc2ccccc2)C(=O)N1C [DP-464] ([NMeA][NMeF][NMeL]T[NMeA]V[NMeA][NMeA]D[NMeF][NMeF]A-Piperidide; lactam N-9) | 25 ×10⁻⁶ cm/s | 30 µL/min/mg
CC(C)C[C@H]1C(=O)N(C)[C@@H](C)C(=O)N[C@@H]([C@@H](C)O)C(=O)N(C)[C@@H](C)C(=O)N(C)[C@@H](C(C)C)C(=O)N[C@@H](COC(C)(C)C)C(=O)N[C@H](C(=O)N2CCCCC2)CC(=O)N(C)CCC(=O)N(C)[C@@H](Cc2ccccc2)C(=O)N[C@@H](C)C(=O)N(C)[C@@H](C)C(=O)N[C@@H](Cc2ccccc2)C(=O)N1C [DP-465] ([NMeβAla][NMeF]A[NMeA]F[NMeL][NMeA]T[NMeA][NMeV]S(tBu)D-Piperidide; lactam N-12) | 5.1 ×10⁻⁶ cm/s | 23 µL/min/mg
CC(C)C[C@@H]1NC(=O)[C@H](CC(C)C)N(C)C(=O)[C@H](Cc2ccccc2)N(C)C(=O)[C@@H](C)N(C)C(=O)C[C@@H](C(=O)N2CCCCC2)NC(=O)[C@H](Cc2ccccc2)N(C)C(=O)[C@H](C)N(C)C(=O)[C@H](C)NC(=O)CN(C)C(=O)[C@H](C)N(C)C(=O)[C@H]([C@@H](C)O)NC(=O)[C@H](C(C)C)N(C)C1=O [DP-466] ([dNMeA][NMeF][NMeL]L[NMeV]T[NMeA][Sar]A[NMeA][NMeF]D-Piperidide; lactam N-12) | 15 ×10⁻⁶ cm/s | 17 µL/min/mg
CC(C)C[C@@H]1NC(=O)[C@H](C(C)C)N(C)C(=O)[C@H](C)N(C)C(=O)[C@H](Cc2ccccc2)N(C)C(=O)[C@H](Cc2ccccc2)NC(=O)[C@@H](C)N(C)C(=O)C[C@@H](C(=O)N2CCCCC2)NC(=O)[C@H]([C@@H](C)O)NC(=O)[C@H](C)N(C)C(=O)[C@H](C)N(C)C(=O)[C@H](C)NC(=O)CN(C)C1=O [DP-467] ([dNMeA]F[NMeF][NMeA][NMeV]L[Sar]A[NMeA][NMeA]TD-Piperidide; lactam N-12) | 1.5 ×10⁻⁶ cm/s | 12 µL/min/mg
